These results are taken from ChEMBL document CHEMBL5329213, “Discovery of a novel GPR35 agonist with high and equipotent species potency for oral treatment of IBD” (Bioorg Med Chem, 2023).

Active and inactive are the calls of the source. The rule behind the calls is not given here.

Data set [1] deals with T1, G-protein coupled receptor 35 (Mus musculus, UniProt Q9ES90). Description: Agonist activity at mouse GPR35 expressed in HEK293 cells co-expressing Galpha16 assessed as increase in calcium mobilization by Fluo-4 AM dye based fluorescence assay. The class given is functional, cell-based.
T1 sequence (Q9ES90 whole entry): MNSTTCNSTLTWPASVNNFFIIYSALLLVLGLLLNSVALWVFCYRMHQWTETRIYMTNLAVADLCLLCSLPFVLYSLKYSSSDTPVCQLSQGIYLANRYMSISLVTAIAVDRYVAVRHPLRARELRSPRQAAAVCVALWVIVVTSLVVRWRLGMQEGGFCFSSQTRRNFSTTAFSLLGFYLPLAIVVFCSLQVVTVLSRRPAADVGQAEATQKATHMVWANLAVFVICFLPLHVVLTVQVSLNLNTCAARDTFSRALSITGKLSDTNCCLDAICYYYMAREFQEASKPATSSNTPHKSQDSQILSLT
Data set [2] can be described thus: Agonist activity at rat GPR35 by beta-arrestin recruitment assay. On the technique in general: Activated receptors often draw arrestin, which recruitment assays turn into a signal.
The target of data set [3] is T2, G-protein coupled receptor 35 (Homo sapiens, UniProt Q9HC97). Description: Agonist activity at human GPR35 by beta-arrestin recruitment assay. The class given is functional.
T2 sequence (Q9HC97 whole entry): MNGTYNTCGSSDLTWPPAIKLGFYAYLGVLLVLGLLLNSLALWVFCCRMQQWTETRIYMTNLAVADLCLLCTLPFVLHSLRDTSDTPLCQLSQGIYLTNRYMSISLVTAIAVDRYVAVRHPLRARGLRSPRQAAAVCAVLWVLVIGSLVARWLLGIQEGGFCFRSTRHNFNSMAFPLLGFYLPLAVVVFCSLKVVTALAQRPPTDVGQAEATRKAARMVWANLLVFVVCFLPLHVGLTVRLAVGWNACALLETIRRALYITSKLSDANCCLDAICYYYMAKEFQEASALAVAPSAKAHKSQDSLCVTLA
Data set [4] addresses T1, G-protein coupled receptor 35. Description: Agonist activity at mouse GPR35 by beta-arrestin recruitment assay. The data set is classed as functional.
For data set [5], the target named is G-protein coupled receptor 35 (Mus musculus) (UniProt Q9ES90). Description: Agonist activity at mouse GPR35 expressed in HEK293 cells co-expressing Galpha16 assessed as increase in calcium mobilization by Fluo-4 AM dye based fluorescence assay relative to-iodoxamide. The data set is classed as functional, cell-based. Particulars: filed as agonist. Background: A change in cytosolic calcium serves as a functional read-out for many receptors and channels.
Sequence of G-protein coupled receptor 35 (Mus musculus) (Q9ES90 whole entry): as the sequence (Q9ES90 whole entry) above

In data set [6] the target is T2, G-protein coupled receptor 35. Description: Agonist activity at human GPR35 expressed in HEK293 cells co-expressing Galpha16 assessed as increase in calcium mobilization by Fluo-4 AM dye based fluorescence assay. The class given is functional, cell-based.
Data set [7] is described as follows: Agonist activity at rat GPR35 expressed in HEK293 cells co-expressing Galpha16 assessed as increase in calcium mobilization by Fluo-4 AM dye based fluorescence assay.
Data set [8] is described as follows: Stability of the compound in mouse plasma. The class given is ADME, cell-free.
The nature of data set [9]: Stability of the compound in plasma of DSS-induced ulcerative colitis C57BL/6 mouse model at 20 mg/kg, po qd for 7 days administered via gavage. The class given is ADME, organism-based. To be noted: in vivo, 168 h, time 7 day.
Data set [10] relates to Mus musculus. In words: Anti-colitis activity against DSS-induced ulcerative colitis C57BL/6 mouse model assessed as reduction in colitis symptoms by measuring decrease in stool thinning at 200 mg/kg, po qd for 7 days administered via gavage. The class given is functional, organism-based. To be noted: time 7.0 day.
For data set [11], the system named is Mus musculus. Description: Anti-colitis activity against DSS-induced ulcerative colitis C57BL/6 mouse model assessed as reduction in colitis symptoms by measuring decrease in rectal bleeding at 200 mg/kg, po qd for 7 days administered via gavage. The data set is classed as functional, organism-based. To be noted: time 7.0 day.
Data set [12] deals with Mus musculus. Description: Anti-colitis activity against DSS-induced ulcerative colitis C57BL/6 mouse model assessed as reduction in colitis symptoms by measuring decrease in body weight loss at 200 mg/kg, po qd for 7 days administered via gavage. The data set is classed as functional, organism-based. To be noted: time 7.0 day.

Take `CCOC(=O)C(=O)Nc1cc(C(=O)OCC(C)C)cc(NC(=O)C(=O)OCC)c1Cl`: the EC50 (as a rule, the concentration needed to bring the measured effect to its halfway point) in data set [1] is 0.0209 µM. `O=C(O)C(=O)Nc1cccc(NC(=O)C(=O)O)c1Cl`: in data set [1], the EC50 was determined as 3.64 µM. Take `O=C(O)c1cc(=O)c2c(OCC(O)COc3cccc4oc(C(=O)O)cc(=O)c34)cccc2o1` [CROMOLYN]: the figures for the concentration giving a half-maximal response (EC50) in [2], in [3] and in [4] were 4 µM, 8 µM and 58 µM, respectively. Turning to `COc1c(NC(=O)C(=O)O)cc(C#N)cc1NC(=O)C(=O)O`, in [1], the EC50 worked out at 3.11 µM. Take `O=C(O)C(=O)Nc1cc(NC(=O)C(=O)O)cc(C(F)(F)F)c1`: in data set [1], the concentration for a half-maximal effect (EC50) is 0.0124 µM. As to `O=C(Nc1cc(C(F)(F)F)cc(NC(=O)C(=O)OC2CC2)c1Cl)C(=O)OC1CC1`, the maximal response (Emax) – broadly, the greatest response seen or fitted, relative to the assay's reference – in [5] is 86%. Further, the EC50 in data set [6] is 0.075 µM; in data set [1] it was 0.119 µM. Regarding `N#Cc1cc(NC(=O)C(=O)O)c(Cl)c(NC(=O)C(=O)O)c1` [LODOXAMIDE], the EC50 in [7] stood at 0.0215 µM; in [6] it was 0.0411 µM; in data set [2] it was 0.013 µM; in data set [3], 0.004 µM; in [1] it was 0.422 µM.

Turning to `O=C(O)C(=O)Nc1cc(Br)cc(NC(=O)C(=O)O)c1Cl`, the EC50 in data set [7] came out at 0.0346 µM; in data set [6], 0.0258 µM; in [1], 0.0281 µM. Moreover, the Emax in [5] worked out at 106%. With `O=C(O)C(=O)Nc1cc(C(=O)O)cc(NC(=O)C(=O)O)c1Cl`, the maximal response (Emax) in data set [5] was found to be 75%. The figures for the EC50 in data set [6] and in data set [1] were 0.125 µM and 5.3 µM, respectively. For `O=C(Nc1cc(C(F)(F)F)cc(NC(=O)C(=O)OC2CCCCC2)c1Cl)C(=O)OC1CCCCC1`, the EC50 in [1] was determined as 0.061 µM. As for `CCOC(=O)C(=O)Nc1cccc(NC(=O)C(=O)OCC)c1Cl`, in data set [1], the EC50 is 3.26 µM. Take `O=C1N/C(=N/c2ccccc2F)S/C1=C\c1ccc(C(=O)O)cc1`: the EC50 in [2] is 8 µM. `O=C(O)c1cc2ccccc2c(Cc2c(O)c(C(=O)O)cc3ccccc23)c1O` [PAMOIC ACID]: the concentration for a half-maximal effect (EC50) in data set [2] was > 100 µM.

Regarding `Cc1c(NC(=O)C(=O)O)cc(C(=O)O)cc1NC(=O)C(=O)O`, in [1], the EC50 is > 10 µM.

Regarding `CCOC(=O)C(=O)Nc1cc(C(F)(F)F)cc(NC(=O)C(=O)OCC)c1Cl`, the Stability entry in [8] and in data set [9] was “Unstable” in each case. Further, the EC50 in [1] is 0.0637 µM. Turning to `O=C(O)C(=O)Nc1cccc(NC(=O)C(=O)O)c1`, the Emax in data set [5] is 105%. Further, the figures for the concentration giving a half-maximal response (EC50) in data set [6] and in data set [1] were 4.25 µM and 8.06 µM, respectively.

With `Cc1cc(NC(=O)C(=O)O)c(Cl)c(NC(=O)C(=O)O)c1`, in data set [1], the EC50 came to 0.0691 µM. Take `N#Cc1cc(NC(=O)C(=O)O)cc(NC(=O)C(=O)O)c1`: the EC50 in data set [1] is 0.376 µM. Regarding `O=C(Nc1cc(C(F)(F)F)cc(NC(=O)C(=O)OC2CCCC2)c1Cl)C(=O)OC1CCCC1`, the Emax in [5] was 91%. Further, the half-maximal effective concentration (EC50) was 1.04 µM in data set [6] and 0.126 µM in data set [1]. As for `O=C(O)C(=O)Nc1cc(C(F)(F)F)cc(NC(=O)C(=O)O)c1Cl`, the EC50 in data set [1] came to 0.0558 µM. Regarding `CCCOc1ccccc1-c1nc2[nH]nnc2c(=O)[nH]1` [ZAPRINAST], the EC50 in data set [2] was 0.1 µM; in data set [4], 1 µM.

As for `CCCCc1cc2c(=O)cc(C(=O)O)[nH]c2c2c(=O)cc(C(=O)O)[nH]c12` [BUFROLIN], the EC50 in data set [2] is 0.01 µM. In the case of `CCOC(=O)C(=O)Nc1cc(C#N)cc(NC(=O)C(=O)OCC)c1Cl` [LODOXAMIDE ETHYL], the Emax in data set [5] was determined as 139%. Further, the EC50 in data set [6] was 0.0292 µM; in data set [1], 0.263 µM. Regarding `COc1ccc(C(=O)Nc2cc(Br)cc3c(=O)cc(C(=O)O)oc23)cc1`, in [2], the EC50 came to 1.4 µM. Consider `CCOC(=O)C(=O)Nc1cc(Br)cc(NC(=O)C(=O)OCC)c1Cl`, for which, in [1], the EC50 turned out to be 0.0425 µM.

Consider `Nc1ccc(O)c(C(=O)O)c1`, for which the result in data set [10], in data set [11] and in [12] was Active. With `COC(=O)C(=O)Nc1cc(C(F)(F)F)cc(NC(=O)C(=O)OC)c1Cl`, the EC50 in data set [1] stood at 0.0272 µM. For `CN(C)c1c(NC(=O)C(=O)O)cc(C#N)cc1NC(=O)C(=O)O`, in [1], the EC50 came out at 9.16 µM.
